The values below come from publication PMC2746553 (Biochemistry, 2009).

Experiment [1] deals with T1, 15-hLO-2 (human epithelial 15-lipoxygenase-2) (Homo sapiens, UniProt O15296).
T1 sequence (O15296 1-676): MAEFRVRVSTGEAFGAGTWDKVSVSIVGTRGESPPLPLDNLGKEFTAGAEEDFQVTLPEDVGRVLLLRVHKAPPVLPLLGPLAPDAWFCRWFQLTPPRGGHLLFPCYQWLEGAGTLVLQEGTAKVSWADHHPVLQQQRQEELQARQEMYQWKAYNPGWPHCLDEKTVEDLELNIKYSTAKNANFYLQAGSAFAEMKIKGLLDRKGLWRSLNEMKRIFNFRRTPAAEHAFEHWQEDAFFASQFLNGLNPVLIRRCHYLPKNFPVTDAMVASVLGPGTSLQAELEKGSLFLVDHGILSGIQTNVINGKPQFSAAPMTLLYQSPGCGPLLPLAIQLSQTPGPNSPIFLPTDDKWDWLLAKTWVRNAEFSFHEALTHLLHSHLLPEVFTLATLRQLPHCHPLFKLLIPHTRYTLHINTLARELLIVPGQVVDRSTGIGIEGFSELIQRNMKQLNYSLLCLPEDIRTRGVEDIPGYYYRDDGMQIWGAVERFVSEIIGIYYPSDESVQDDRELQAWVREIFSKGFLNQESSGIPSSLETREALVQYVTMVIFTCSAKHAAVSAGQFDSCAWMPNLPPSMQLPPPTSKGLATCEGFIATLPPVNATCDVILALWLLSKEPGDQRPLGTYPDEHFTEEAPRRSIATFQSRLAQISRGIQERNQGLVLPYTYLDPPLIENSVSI
The experiment in a line: competitive substrate capture, solvent isotope effect and steady-state kinetics. In kind it is biochemical.

Experiment [2] deals with T1, 15-hLO-2 (human epithelial 15-lipoxygenase-2).
Experiment [3] has the same target. Kind of experiment: competitive kinetic isotope effect and competitive substrate capture. In kind it is biochemical.
Experiment [4] shares this target. Kind of experiment: steady-state inhibition kinetics with AA as substrate. The experiment is classed as biochemical.

One may read the Kd as the equilibrium constant for the complex coming apart. The low end stands for higher affinity, the high end for lower affinity. As a reminder, the Ki is a measure of affinity in units of concentration, obtained from inhibition or displacement. The low end stands for tighter binding, the high end for weaker binding.

As to `CCCCC[C@H](O)/C=C/C=C\CCCCCCCC(=O)O` [13-HODE, 13-(S)-hydroxyoctadecadienoic acid], the Kd in experiment [1] was around 0.005 µM. In the case of `CCCCC/C=C\C/C=C\C/C=C\C/C=C\CCCC(=O)O` [AA, arachidonic acid], the “steady-state kinetics (234 nm), kcat/KM at pH 7.5” value in experiment [2] came out at 0.15 ± 0.02 μM^-1 s^-1. Consider `CCCCC/C=C\C/C=C\CCCCCCCC(=O)O` [LA, linoleic acid], for which the “competitive kinetic isotope effect and competitive substrate capture (HPLC)” value in experiment [3] worked out at 45 ± 3. With `CCCCC/C=C\C/C=C\CCCCCCCC(=O)O` [d31-LA], in experiment [4], the inhibitory constant (Ki) was 17 ± 3 µM.
